Tests used:
Meloidogyne incognita [1] = experiment: Root knot nematode comparative bioactivity test at 600 g ai/ha, drench on cucumber seedlings; format: in vivo; details: 14 days after inoculation, (10−GI)×10
Method: We carried out an experiment to evaluate comparative bioactivity of S1, C1, C2, C3, C4, and C5 against the root knot nematode, Meloidogyne incognita. Each compound was tested at 600 grams of active ingredient per hectare (g ai/ha) and was replicated three times. Cucumber seeds (Cucumis sativus) were planted in a sandy loam soil in 3-inch pots. After six (6) days of planting, the seedlings were treated with the test compounds dissolved in 5% acetone in water by drench application. The plants were inoculated with 4,000 second stage juveniles (J2s) of M. incognita. The inoculated plants were kept in a Greenhouse for 14 days (temperature 27° C.) before evaluating the amount of root damage (galls) called Galling Index (GI) based on a scale of 0-10; where 0=no galls (100% nematode control), and 10=maximum galls (no nematode control). The GI was converted to % nematode control using the formula ((10−GI)×10); where GI=Gall Index. The data were analyzed by Analysis of Variance using JMP (John's Macintosh Project) statistical software and the means were separated using Tukey's HSD (α=0.05).

M. incognita = experiment: Residuality test in soil against root knot nematode; format: in vivo, Meloidogyne incognita; details: 1250 g ai/ha on bare soil, aged four weeks, then seedlings and 4,000 J2s, evaluated after 14 days
Method: A residuality test was conducted to compare the residual control or persistence of S1, R1, C1, C2, C3, C4, and C5 in soil. Each compound was applied to a bare sandy loam soil (without plant or nematode) in a 3-inch pot at 1250 g ai/ha. The treated soils were kept in a Greenhouse (temperature 27° C.) under regular irrigation for four weeks. At the end of the four weeks, six-day old cucumber (Cucumis sativus) seedlings were transplanted into the treated soil and inoculated with 4,000 second stage juveniles of M. incognita. Each treatment was replicated four times. The inoculated plants were kept in a Greenhouse for 14 days (temperature 27° C.) before evaluating the amount of root damage (galls) called Galling Index (GI) based on a scale of 0-10; where 0=no galls (100% nematode control), and 10=maximum galls (no nematode control). The GI were converted to % control using the formula ((10−GI)×10); where GI=Gall Index. The data were analyzed by Analysis of Variance using JMP (John's Macintosh Project) statistical software and the means were separated using Tukey's HSD (α=0.05).

Pratylechus penetrans = experiment: Root Lesion Nematode (RLN) in-vitro mortality test; format: in vivo; details: RLN LC50
Method: We carried out an in-vitro experiment to compare activity of S1, R1, and B1 with each other against the root lesion nematode (RLN), Pratylechus penetrans. Each of S1, R1, and B1 were tested at six rates: 62.5, 15.6, 4, 1, 0.25, and 0 ppm (UTC) with three replications of each treatment. Equal volume of nematode suspension was added to an equal volume of each of S1, R1, and B1 dissolved in 0.5% DMSO (dimethyl sulfoxide) in water in 25 mL vials. The treated nematode suspension was incubated at room temperature (about 25° C.) on a shaker (95 RPM). Aliquots of 1 mL of the nematode suspension was evaluated under a microscope for mortality after 48 hours. RLN were counted, and the number of dead and active nematodes was used to calculate % mortality from which lethal concentration (LC) values were generated.

Meloidogyne incognita [2] = experiment: Root Knot Nematode (RKN) test on cucumber seedlings in pots, Galling Index converted to % control, EC by probit analysis; format: in vivo; details: RKN EC50
Method: (§1) We conducted an experiment to evaluate comparative bioactivity of S1, R1, and B1 against the root knot nematode (RKN), Meloidogyne incognita. Each of S1, R1, and B1 were tested at six rates: 125, 62.5, 31.25, 15.6, 7.8, 3.9, and 2 ppm. Cucumber seeds (Cucumis sativus) were planted in a sandy loam soil in 3-inch pots. After 6 days of germination, the seedlings were treated with the test compounds dissolved in 5% acetone in water. The treated plants were inoculated with 4,000 second stage juveniles (J2s) of M. incognita. Each experimental unit was replicated three times. The inoculated plants were kept in a Greenhouse for 14 days (about 27° C.) before evaluating the amount of root damage (galls) called Galling Index (GI) based on a scale of 0-10; where 0=no galls (100% control), and 10=maximum galls (no control). The GI was converted to % control using the formula (10−GI)×10; where GI=Gall Index. Effective concentration (EC) values based on the % control of the nematode by S1, R1 and B1 were calculated by probit analysis.

[3] = system: root knot nematode, soybean cyst nematode, root lesion nematode; experiment: Average of Delta % over the RKN, SCN and RLN tests of Example One; format: in vivo
Method: as §1, with “The GI was converted to % control using the formula (10−GI)×10; where GI=Gall Index.” left out, “analysis. […]” for “analysis.”
We carried out an in-vitro experiment to compare activity of S1, R1, and B1 with each other against the root lesion nematode (RLN), Pratylechus penetrans. […] Aliquots of 1 mL of the nematode suspension was evaluated under a microscope for mortality after 48 hours. RLN were counted, and the number of dead and active nematodes was used to calculate % mortality from which lethal concentration (LC) values were generated.

[4] = system: Heterodera glycines second stage juveniles (J2); experiment: Soybean Cyst Nematode (SCN) in-vitro mortality test; format: in vivo; details: SCN LC50
Method: We carried out an in-vitro experiment to compare activity of S1, R1, and B1 with each other against the soybean cyst nematode (SCN): Heterodera glycines second stage juveniles (J2). Each of S1, R1, and B1 were tested at six rates: 62.5, 15.6, 4, 1, 0.25, and 0 ppm (untreated control, UTC with three replications of each treatment. Equal volume of nematode suspension was added to an equal volume of compound dissolved in 0.5% DMSO (dimethyl sulfoxide) in water. The nematode plus compound was incubated at room temperature (about 25° C.) on a shaker at 95 revolutions per minutes (RPM). Aliquots of 0.5 milliliters (mL) of the nematode suspension were evaluated under a microscope for mortality after 48 hours of incubation. SCN J2s were counted, and the number of dead and active nematodes was used to calculate % SCN mortality which was used to generate lethal concentration (LC) values by probit analysis.

## C[C@H](NC(=O)c1ccoc1Cl)C(C)(C)C [Molecule C1]
Meloidogyne incognita [1]
  Mean Percent Control: 54%
M. incognita
  Mean Percent Control: 27.5%

## CCC(CC)[C@H](C)NC(=O)c1ccoc1Cl [Molecule S1, (S)-2-chloro-N-(3-ethylpentan-2-yl)furan-3-carboxamide]
Pratylechus penetrans
  Delta % vs B1: 259%
Meloidogyne incognita [2]
  Delta % vs B1: 240%
[3]
  Delta % on average, S1 versus B1: 564%
[4]
  Delta % vs B1: 1194%
